Patent US11691990B2, “Salts of compounds and crystals thereof” (Eisai R&D Management Co., Ltd., priority 2018, dated 2023)

Columns and labels:
[1] = tested on: CT26 tumor cells; test: CT26 dual tumor model (mouse colon cancer model); type: in vivo; settings: I.T. single dose, study B
Procedure: For study A, treatment was started 5 days (1.25 mg/kg, 2.5 mg/kg and 5 mg/kg) after the tumor implantation, when the average tumors reached approximately 100 mm^3. For study B, treatment was started 8 days (0.6 mg/kg, and 10 mg/kg) after the tumor implantation, when the average tumors reached approximately 120 mm^3. The treatment scheme is described in Table 5 and Table 6.
All the mice in the study have two subcutaneous CT26 tumors. The “treated tumor” indicates the tumor with compound direct administration, while “untreated tumor” indicates the tumor without direct compound administration. Tumor volume was followed throughout the experiment. Tumor volume is measured two times weekly after the start of treatment. Tumor burden is calculated from caliper measurements by the formula for the volume of a prolate ellipsoid (L×W^2)/2 where L and W are the respective orthogonal length and width measurements (mm).

[2] = tested on: primary human PBMC; test: Ex vivo human PBMC stimulation assay, IFNβ protein; type: cell-based; settings: 24 hours, average of five donors
Procedure: Human blood from 5 healthy donors was collected using 10.0 mL BD Vacutainer Sodium heparin tubes (cat #367874). Peripheral blood mononuclear cell (PBMC) isolation was done using SIGMA ACCUSPIN 50 ml Tubes (cat #A2055) and sigma ACCUSPIN System-HISTOPAQUE-1077 (cat #A7054) using protocol provided by manufacturer. […] PBMC were counted and finally suspended at 1×10e6/ml in RPMI (corning cat #10-041-CV) supplemented with 10% fetal bovine serum (FBS) (Gibco cat #20140.79). 1 ml of cell (1×10e6) were transferred into Falcon 5 mL Round Bottom Polypropylene Test Tube (cat #352063) and stimulated with different concentrations ([…]) for 24 hours in 5% CO2 incubator at 37° C. After 24 hours of incubation the tubes were centrifuged at 1400 rpm for 5 minutes and supernatants were harvested. Supernatant were stored in −80° C. for subsequent IFN measurement. IFNβ measurement was done using Human IFN-β Base Kit (Meso Scale Diagnostics cat #K151ADA) and protocol provided by manufacturer was used. IFN-beta estimation was done by reading assay plate at MESO SECTOR Imager 2400 and using MSD Discovery Workbench 4.0 program. After 24 hours IFNβ protein was analyzed. […] Results shown in Table 3 reflect an average of measurements conducted using five different donors.

O=[P@]1(S)OC[C@H]2O[C@@H]3[C@H](F)[C@@H]2O[P@](=O)(S)OC[C@H]2O[C@H]([C@H](F)[C@@H]2O1)n1cnc2c(ncnc21)NC/C=C/CNc1ncnc2c1ncn23 [Compound (1a), (1R,3R,15E,28R,29R,30R,31R,34R,36R,39S,41R)-29,41-Difluoro-34,39-bis(sulfanyl)-2,33,35,38,40,42-hexaoxa-4,6,9,11,13,18,20,22,25,27-decaaza-34λ^5,39λ^5-diphosphaoctacyclo[28.6.4.1^3,36.1^28,31.0^4,8.0^7,12.0^19,24.0^23,27]dotetraconta-5,7,9,11,15,19,21,23,25-nonaene-34,39-dione]
cure rate, treated tumors ([1]; 0.6 mg/kg): 20% | animals cured of treated tumor at the end of study ([1]; 10 mg/kg): 100% | curative effects, untreated tumors ([1]; 10 mg/kg): 80% | IFNβ ([2]; 0.1 μM): 21.3 ± 17.8 pg/mL | IFNβ ([2]; 1 μM): 227.5 ± 62.4 pg/mL | IFNβ ([2]; 10 μM): 540.2 ± 215.0 pg/mL
